Experimental data published in PubChem BioAssay AID330 (DTP/NCI, 2004).
“And” between values parts separate entries of the source, which are not always exact repeats. Equal entries are not always repeated. Toxic doses and inconclusive results are not listed. Rule for the calls: active = survival T/C of 150% or more; inactive = T/C below 125% in these data.

Test system: P388 leukemia ip, CD2F1 mice, survival T/C
Experiment: NCI In Vivo Anticancer Drug Screen. Data for tumor model P388 Leukemia (intraperitoneal) in CD2F1 (CDF1) mice
Details: endpoint: median survival time, higher = longer survival
In short: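 Mice carrying the transplanted tumor received test compound or vehicle. Survival was recorded in each group, and the value is the treated-group measurement divided by that of the vehicle-treated control group.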

[1] = dose: 100.0 mg/kg/injection, schedule: Q04DX003 (ip), vehicle: saline with Tween-80
[2] = dose: 200.0 mg/kg/injection, schedule: Q04DX003 (ip), vehicle: saline with Tween-80
[3] = dose: 400.0 mg/kg/injection, schedule: Q04DX003 (ip), vehicle: saline with Tween-80
[4] = dose: 25.0 mg/kg/injection, schedule: Q01DX009 (ip), vehicle: saline with Tween-80
[5] = dose: 50.0 mg/kg/injection, schedule: Q01DX009 (ip), vehicle: saline with Tween-80
[6] = dose: 25.0 mg/kg/injection, schedule: Q04DX003 (ip), vehicle: saline with Tween-80
[7] = dose: 50.0 mg/kg/injection, schedule: Q04DX003 (ip), vehicle: saline with Tween-80
[8] = dose: 100.0 mg/kg/injection, schedule: Q01DX009 (ip), vehicle: saline with Tween-80
[9] = dose: 50.0 mg/kg/injection, schedule: Q01DX005 (ip), vehicle: saline with Tween-80
[10] = dose: 100.0 mg/kg/injection, schedule: Q01DX005 (ip), vehicle: saline with Tween-80
[11] = dose: 200.0 mg/kg/injection, schedule: Q01DX009 (ip), vehicle: saline with Tween-80

Measured: T/C

O=c1c2c([nH]c3ccc4[nH]c5c(c(=O)c4c13)CCCC5)CCCC2
inactive: [1] 94 % of control | [2] 91 % of control | [3] 87 % of control

O=C1Nc2ccccc2C(=O)C1(O)c1ccccc1 (stereo not given)
inactive: dose: 60.0 mg/kg/injection, schedule: Q01DX005 (ip), vehicle: Klucel (hydroxypropylcellulose) (HPC) 105 % of control | dose: 120.0 mg/kg/injection, schedule: Q01DX005 (ip), vehicle: Klucel (hydroxypropylcellulose) (HPC) 103 % of control | dose: 240.0 mg/kg/injection, schedule: Q01DX005 (ip), vehicle: Klucel (hydroxypropylcellulose) (HPC) 94 % of control

COc1ccc(OC)c(N2C(=O)C=C(C)C2(O)CC#N)c1 (stereo not given)
inactive: dose: 6.25 mg/kg/injection, schedule: Q01DX009 (ip), vehicle: saline with Tween-80 100 % of control | dose: 12.5 mg/kg/injection, schedule: Q01DX009 (ip), vehicle: saline with Tween-80 95 % of control | [4] 98 % of control | [5] 98 % of control

CC(C#N)(S(C)(=O)=O)S(=O)(=O)c1ccccc1 (stereo not given)
inactive: dose: 1.56 mg/kg/injection, schedule: Q01DX001 (ip), vehicle: saline with Tween-80 96 % of control | dose: 3.12 mg/kg/injection, schedule: Q01DX001 (ip), vehicle: saline with Tween-80 99 % of control | dose: 6.25 mg/kg/injection, schedule: Q01DX001 (ip), vehicle: saline with Tween-80 102 % of control

S=P(NCCS)(N1CC1)N1CC1
inactive: [1] 109 % of control | [2] 122 % of control | [3] 91 % of control

CCN(CC)CCOC(=O)Cc1cccc2c(=O)cc(-c3ccccc3)oc12
inactive: dose: 12.5 mg/kg/injection, schedule: Q01DX009 (ip), vehicle: saline 120 % of control | dose: 25.0 mg/kg/injection, schedule: Q01DX009 (ip), vehicle: saline 108 % of control and 97 % of control | dose: 50.0 mg/kg/injection, schedule: Q01DX005 (ip), vehicle: saline 100 % of control | dose: 100.0 mg/kg/injection, schedule: Q01DX001 (ip), vehicle: saline 102 % of control | dose: 100.0 mg/kg/injection, schedule: Q01DX005 (ip), vehicle: saline 108 % of control | dose: 100.0 mg/kg/injection, schedule: Q04DX002 (ip), vehicle: saline 107 % of control | dose: 100.0 mg/kg/injection, schedule: Q04DX003 (ip), vehicle: saline 107 % of control | dose: 100.0 mg/kg/injection, schedule: Q08DX002 (ip), vehicle: saline 111 % of control | dose: 200.0 mg/kg/injection, schedule: Q01DX001 (ip), vehicle: saline 114 % of control | dose: 200.0 mg/kg/injection, schedule: Q04DX002 (ip), vehicle: saline 110 % of control | dose: 200.0 mg/kg/injection, schedule: Q08DX002 (ip), vehicle: saline 117 % of control | dose: 300.0 mg/kg/injection, schedule: Q01DX001 (ip), vehicle: saline 117 % of control | dose: 300.0 mg/kg/injection, schedule: Q04DX002 (ip), vehicle: saline 114 % of control | dose: 300.0 mg/kg/injection, schedule: Q08DX002 (ip), vehicle: saline 112 % of control | dose: 400.0 mg/kg/injection, schedule: Q01DX001 (ip), vehicle: saline 116 % of control

CNC(=O)OCC1=C(COC(=O)NC)C2OC1C(C(=O)OC)=C2C(=O)OC
inactive: dose: 3.13 mg/kg/injection, schedule: Q01DX009 (ip), vehicle: distilled water + Tween-80 91 % of control | dose: 12.5 mg/kg/injection, schedule: Q01DX009 (ip), vehicle: distilled water + Tween-80 94 % of control

O=C(Nc1ccc(S(=O)(=O)F)cc1)Oc1ccc([N+](=O)[O-])cc1
inactive: dose: 60.0 mg/kg/injection, schedule: Q01DX005 (ip), vehicle: saline with Tween-80 121 % of control | dose: 120.0 mg/kg/injection, schedule: Q01DX005 (ip), vehicle: saline with Tween-80 101 % of control | dose: 240.0 mg/kg/injection, schedule: Q01DX005 (ip), vehicle: saline with Tween-80 86 % of control

O=C1C=C(O)C2CCCCC2N1 (stereo not given)
inactive: dose: 50.0 mg/kg/injection, schedule: Q01DX005 (ip), vehicle: Klucel (hydroxypropylcellulose) (HPC) 99 % of control | dose: 100.0 mg/kg/injection, schedule: Q01DX005 (ip), vehicle: Klucel (hydroxypropylcellulose) (HPC) 95 % of control

Fc1cccc(CSc2ncnc3nc[nH]c23)c1
inactive: [4] 104 % of control | [6] 95 % of control | [5] 95 % of control | [7] 90 % of control | [8] 104 % of control | [1] 100 % of control and 104 % of control | [2] 100 % of control

C1CCC2CC2C2(CC1)CO2 (stereo not given)
inactive: dose: 100.0 mg/kg/injection, schedule: Q04DX003 (ip), vehicle: Klucel (hydroxypropylcellulose) (HPC) 106 % of control | dose: 200.0 mg/kg/injection, schedule: Q04DX003 (ip), vehicle: Klucel (hydroxypropylcellulose) (HPC) 108 % of control | dose: 400.0 mg/kg/injection, schedule: Q04DX003 (ip), vehicle: Klucel (hydroxypropylcellulose) (HPC) 115 % of control

c1ccc(CN2CCC(N3CNc4ccccc43)CC2)cc1
inactive: [6] 109 % of control | [7] 114 % of control | [1] 88 % of control

C[N+]1(C)CC=CCC1c1ccccc1 (stereo not given)
inactive: dose: 6.25 mg/kg/injection, schedule: Q01DX005 (ip), vehicle: saline 104 % of control | dose: 12.5 mg/kg/injection, schedule: Q01DX005 (ip), vehicle: saline 105 % of control | dose: 25.0 mg/kg/injection, schedule: Q01DX005 (ip), vehicle: saline 98 % of control

Clc1ccc(C2N(Cc3ccccc3)CCC3CCCCN32)cc1Cl (stereo not given)
inactive: [5] 87 % of control | [8] 91 % of control

COCCc1nn[nH]n1
inactive: dose: 50.0 mg/kg/injection, schedule: Q01DX009 (ip), vehicle: saline 110 % of control | dose: 100.0 mg/kg/injection, schedule: Q01DX009 (ip), vehicle: saline 115 % of control | dose: 200.0 mg/kg/injection, schedule: Q01DX009 (ip), vehicle: saline 109 % of control

OC(c1cc(-c2ccc(Cl)cc2)nc2ccccc12)C1CCCCN1 (stereo not given)
inactive: [9] 105 % of control | [10] 113 % of control

C[C@]12CC(=O)[C@@H](C[C@H]1OC(=O)c1ccccc1)[C@@]21CO1
inactive: dose: 2.0 mg/kg/injection, schedule: Q04DX002 (ip), vehicle: distilled water + Tween-80 102 % of control | dose: 4.0 mg/kg/injection, schedule: Q04DX002 (ip), vehicle: distilled water + Tween-80 97 % of control | dose: 8.0 mg/kg/injection, schedule: Q04DX002 (ip), vehicle: distilled water + Tween-80 100 % of control | dose: 16.0 mg/kg/injection, schedule: Q04DX002 (ip), vehicle: distilled water + Tween-80 106 % of control | dose: 32.0 mg/kg/injection, schedule: Q04DX002 (ip), vehicle: distilled water + Tween-80 99 % of control

CN(C)c1ccc(C(=O)C(O)c2ccccc2Cl)cc1 (stereo not given)
inactive: [4] 104 % of control | [5] 96 % of control | [8] 96 % of control | [11] 98 % of control

COc1cc2ccc(/C(C)=N/OC(C)=O)cc2cc1OC
inactive: [8] 95 % of control | [11] 90 % of control | dose: 400.0 mg/kg/injection, schedule: Q01DX009 (ip), vehicle: saline with Tween-80 90 % of control

CCC1(c2ccccc2)Nc2ccccc2C1=Nc1ccccc1 (stereo not given)
inactive: [7] 100 % of control | [1] 99 % of control | [2] 90 % of control

CO/C=C1\OC(=O)C=C1OC
inactive: [9] 101 % of control | [10] 108 % of control | dose: 200.0 mg/kg/injection, schedule: Q01DX005 (ip), vehicle: saline with Tween-80 114 % of control

O=C(Nc1nc2cccnc2s1)C(F)(F)F
inactive: [5] 100 % of control | [8] 97 % of control | [11] 94 % of control

Cc1nc(N)c2nc(SC(C)C)c(N)nc2n1
inactive: [5] 91 % of control | [8] 91 % of control | [11] 91 % of control
